Laboratory results taken from publication PMC2576538 (The Journal of Biological Chemistry, 2008).
Ends that are not written are not given here. * marks the point of attachment. Biotin = O=C1N[C@H]2[C@H](CS[C@H]2CCCCC(=O)*)N1

T1: GST-claudin-4, full length (mouse, UniProt O35054 1-210)
T1 sequence: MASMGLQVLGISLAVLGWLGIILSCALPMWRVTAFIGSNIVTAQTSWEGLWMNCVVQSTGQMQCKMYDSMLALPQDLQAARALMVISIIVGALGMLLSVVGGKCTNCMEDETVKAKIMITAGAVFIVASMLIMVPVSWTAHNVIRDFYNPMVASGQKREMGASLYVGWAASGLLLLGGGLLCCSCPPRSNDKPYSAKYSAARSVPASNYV


Legend:
Cpe30 peptide = assay type: binding, Clostridium perfringens
[1] = molecular target: Cpe17 (last C-terminal 17 amino acids of Cpe), biotinylated (Clostridium perfringens) (UniProt P01558); assay: SPR
[2] = molecular target: Biotin-Cpe30 (Clostridium perfringens) (UniProt P01558); assay: SPR
[3] = molecular target: T1, GST-claudin-4, full length; assay: SPR

| Molecule | Binding of immobilized Ecl2 peptide to Cpe30, in words (Cpe30 peptide) | other results |
| --- | --- | --- |
| AHNVIRDFYNPMVASGQKREMGASL [B-Ecl2-B] | does not bind |  |
| GST-Cldn-4.R4 (GST fused to claudin-4 from Ecl2 through the C terminus) (domain or fragment) |  | Kd [1]: 1.57 nM; Kd [2]: 2.56 nM |
| AHNVIRDFYNPMVASGQKREMGASL (disulfide (positions not given here)) [B-lariat-Ecl2] | does not bind |  |
| (138)AHNVIRDFYNPM VASGQKREMGASL(160) [B-Ecl2] | does not bind |  |
| Biotin-SLDAGQYVLVMKANSSYSGNYPYSILFQKF [Biotin-Cpe30] |  | binding result [3]: binds |
